In patent publication US20250092010A1, “DIHYDRO-2H-ISOINDOLE ESTER COMPOUND” (Shanghai Maius Pharmaceutical Co. Ltd., priority 2021, published 2025):

Key:
[1] = Pharmacokinetic assays after oral gavage administration to rats; format: in vivo, male SD rats; parameters: Tmax / AUC(0-∞): concentration or dose not given beside the values; AUMC(0-t) / AUMC(0-∞): unit not given here; conditions: for AUC(0-∞) / AUMC(0-t) / AUMC(0-∞) / CLz/F / Cmax / MRT(0-t) / MRT(0-∞) / Tmax / VRT(0-t) / VRT(0-∞) / t½z / AUC(0-t): plasma, oral gavage, male SD rats; for AUC(0-∞) / AUMC(0-t) / AUMC(0-∞) / CLz/F / Cmax / MRT(0-t) / MRT(0-∞) / Tmax / VRT(0-t) / VRT(0-∞) / t½z / AUC(0-t) / average retention time / time to peak concentration: active metabolite; for AUC(0-t): suspension in 0.5% CMC-Na; for AUC value of the active metabolite equivalent to % of that of the existing drugs: existing drugs administered at the same molar amount
Method: Instruments: ultra high performance liquid chromatography (Acquity UPLC, Waters) system; triple quadrupole mass spectrometer (Qtrap 5500, Sciex); high-speed refrigerated centrifuge (5430R, Eppendorf).
Chromatography Condition: Column: 2.1×50 mm (1.7 μm, BEH C18, Waters); Column Temperature: 45° C.; Mobile Phase: 0.1% aqueous solution of formic acid (A)/acetonitrile; Gradient: see the table below: […]
Mass Spectrometry Condition: Mode: positive ion multiple reaction monitoring (MRM); Curtain Gas: 45 psi; Gas 1:45 psi; Gas 2:45 psi; Ion Source Temperature: 500° C.; Ion Source Voltage: 5000 V. Precursor ions (Q1), product ions (Q3) and collision energy (CE) of some compounds are listed in the table below:
Experimental Animals: male SD rats, 6 in each group, weighing 200-220 grams, fasting overnight before experimentation.
Preparation of Drugs: lenalidomide, as a reference drug, and the test compounds (Compounds 1-10) were accurately weighed and dispensed in 0.5% CMC-Na solutions, resulting in suspensions.
Drug Administration to and Blood Collection from Animals: the drugs were oral gavage administered to the rats, and 100-μl blood samples were taken before administration and 10 min, 20 min, 40 min, 1 h, 1.5 h, 2 h, 3 h, 5 h, 8 h, 12 h, 21 h, 24 h and 30 h after administration. Each sample was placed in an ice bath, centrifuged for plasma collection, frozen and stored.
Plasma drug concentration Data and Calculation of Pharmacokinetic Parameters: Plasma drug concentration data was processed using MultiQuan 3.0 (Sciex), and pharmacokinetic parameters were calculated using DAS 2.0 software. Plasma drug concentrations were measured in ug/L.

[2] = patients, cited from earlier work

Row | AUC(0-∞) [1] | AUMC(0-t) [1] | AUMC(0-∞) [1] | CLz/F [1] | Cmax [1] | MRT(0-t) [1] | MRT(0-∞) [1] | Tmax [1] | VRT(0-t) [1] | VRT(0-∞) [1] | t½z [1] | AUC(0-t) [1] | average retention time [1] | time to peak concentration [1] | AUC value of the active metabolite equivalent to % of that of the existing drugs [1] | SMILES | myelosuppression grade ([2]; 50 mg per day, 28th day of treatment) | maximum tolerated dose (MTD) ([2]; clinical study)
1 | 1765 ± 226.3 ng·h/mL | 13691 ± 587.2 | 14002 ± 589.6 | 65 ± 13 mL/min/kg | 163.2 ± 26.4 ng/mL | 5.2 ± 0.7 h | 5.2 ± 0.7 h | 5 ± 0.9 h | 14 ± 2.1 h^2 | 14.2 ± 2.2 h^2 | 3.1 ± 0.5 h | 1568 ± 205.4 ng·h/mL |  |  |  | CCC(CC)COC(=O)Nc1cccc2c1CN(C1CCC(=O)NC1=O)C2=O (centres unmarked) [Compound 10] |  | 
2 | 421.5 ± 55.6 ng·h/mL | 3596 ± 401.3 | 3689 ± 411.6 | 63.3 ± 15 mL/min/kg | 105.3 ± 24.1 ng/mL | 3.8 ± 0.5 h | 3.9 ± 0.5 h | 3.8 ± 1.1 h | 9.8 ± 1.5 h^2 | 9.9 ± 1.6 h^2 | 2.9 ± 0.3 h | 489.4 ± 50.3 ng·h/mL |  |  |  | CCCCCCCCCCCOC(=O)Nc1cccc2c1CN(C1CCC(=O)NC1=O)C2=O (centres unmarked) [Compound 8] |  | 
3 | 584.3 ± 50.3 ng·h/mL | 3965 ± 415.1 | 4123 ± 446.1 | 68.3 ± 18.3 mL/min/kg | 135 ± 23.0 ng/mL | 3.8 ± 0.7 h | 3.8 ± 0.8 h | 3.5 ± 0.8 h | 10 ± 1.3 h^2 | 10.5 ± 1.3 h^2 | 3.1 ± 0.2 h | 503.2 ± 42.6 ng·h/mL |  |  |  | CCCCCCCCOC(=O)Nc1cccc2c1CN(C1CCC(=O)NC1=O)C2=O (centres unmarked) [Compound 7] |  | 
4 | 456 ± 48.0 ng·h/mL | 3126 ± 298.1 | 3360 ± 318.6 | 70 ± 16.7 mL/min/kg | 95.6 ± 22.2 ng/mL | 3.5 ± 0.6 h | 3.6 ± 0.7 h | 4.1 ± 0.8 h | 10 ± 1.5 h^2 | 10.2 ± 1.5 h^2 | 3.0 ± 0.4 h | 402.5 ± 51.6 ng·h/mL |  |  |  | CCCCCCCCCCCCCCCCCCOC(=O)Nc1cccc2c1CN(C1CCC(=O)NC1=O)C2=O (centres unmarked) [Compound 9] |  | 

Second part, the compound before the results:

Row | SMILES | AUC(0-∞) [1] | AUMC(0-t) [1] | AUMC(0-∞) [1] | CLz/F [1] | Cmax [1] | MRT(0-t) [1] | MRT(0-∞) [1] | Tmax [1] | VRT(0-t) [1] | VRT(0-∞) [1] | t½z [1] | AUC(0-t) [1] | average retention time [1] | time to peak concentration [1] | AUC value of the active metabolite equivalent to % of that of the existing drugs [1] | myelosuppression grade ([2]; 50 mg per day, 28th day of treatment) | maximum tolerated dose (MTD) ([2]; clinical study)
5 | CCCCCCOC(=O)Nc1cccc2c1CN(C1CCC(=O)NC1=O)C2=O (centres unmarked) [Compound 5] | 1257 ± 209.6 ng·h/mL | 8749 ± 352.6 | 8954 ± 336.4 | 70 ± 15 mL/min/kg | 158 ± 31.1 ng/mL | 4 ± 0.5 h | 1.1 ± 0.6 h | 4 ± 0.5 h | 11 ± 1.8 h^2 | 11.8 ± 2.1^ h^2 | 3.0 ± 0.3 h | 1022 ± 214.5 ng·h/mL |  |  |  |  | 
6 | CC(C)OC(=O)Nc1cccc2c1CN(C1CCC(=O)NC1=O)C2=O (centres unmarked) [Compound 1] | 3889.6 ± 435.6 ng·h/mL | 32705.8 ± 3125.3 | 33484.2 ± 3040.7 | 71.7 ± 17 mL/min/kg | 543.6 ± 68.5 ng/mL | 4.5 ± 0.7 h | 4.6 ± 0.6 h | 0.8 ± 0.4 h | 13 ± 2.2 h^2 | 14.3 ± 2.1 h^2 | 2.8 ± 0.3 h | 3822 ± 424.5 ng·h/mL | 4.5 h | 0.8 h | 45% |  | 
7 | Nc1cccc2c1CN(C1CCC(=O)NC1=O)C2=O (centres unmarked) [reference drug, lenalidomide] |  |  |  |  |  |  |  |  |  |  |  |  |  |  |  | Grade 3 myelosuppression | 25 mg per day
8 | Cc1oc(=O)oc1COC(=O)Nc1cccc2c1CN(C1CCC(=O)NC1=O)C2=O (centres unmarked) [Compound 6] | 5229.3 ± 755.1 ng·h/mL | 44683.6 ± 4956.6 | 45199.7 ± 4922.6 | 98.3 ± 17 mL/min/kg | 405.4 ± 89.8 ng/mL | 8.6 ± 0.6 h | 8.7 ± 0.6 h | 7 ± 1.5 h | 20 ± 2.5 h^2 | 21.8 ± 2.8 h^2 | 2.9 ± 0.4 h | 5217 ± 754.8 ng·h/mL | 8.6 h | 7 h | 61% |  | 
